# Results: patent publication US20220030865A1, “COMPOSITIONS COMPRISING FLORPYRAUXIFEN THAT SAFEN WHITE CLOVER AND METHODS OF USE THEREOF” (CORTEVA AGRISCIENCE LLC, priority 2018, published 2022)
# Key:
# [1] = system: tall buttercup (RANAC, Ranunculus acris); assay: Field trial, postemergence herbicidal effect on pasture weeds
# Text: (§1) Trials were designed as randomized complete blocks with four replicates. All trials were established with a minimum plot size of 3 meters (m) by 8 m (width×length). All herbicide treatments were applied post-emergence with applications made to the undesirable vegetation. Herbicides were applied with backpack sprayers using carbon dioxide (CO2) as a propellant. The sprayers utilized flat fan spray nozzles calibrated to deliver a uniform spray pattern that provided thorough coverage of the foliage using a 187 L/ha spray volume. All treatments were applied with Activator 90 non-ionic surfactant at 0.25% v/v.
# (§2) The weeds were evaluated on the number of days after application (DAA) given in each table below. Injury to the weeds was assessed visually at several intervals after application as percent overall injury, compared to an untreated control plot. The overall injury assessments were based on visual ratings of growth inhibition, leaf deformity, epinasty, and chlorosis.
# [2] = system: mayweed chamomile (ANTCO, Anthemis cotula); assay: as above; conditions: 14 DAA
# Text: as §1, §2
# [3] = system: Virginia pepperweed (LEPVI, Lepidium virginicum); assay: as above; conditions: 27 DAA
# Text: as §1, §2
# [4] = system: sickle pod (CASOB, Senna obtusifolia); assay: as above
# Text: as §1, §2
# [5] = system: bitter sneezeweed (HENAM, Helenium amarum); assay: as above
# Text: as §1, §2
# [6] = system: annual yellow sweetclover (MEUIN, Melilotus indicus); assay: as above; conditions: 30 DAA
# Text: as §1, §2
# [7] = system: annual marsh-elder (IVAAN, Iva annua); assay: as above
# Text: as §1, §2
# [8] = system: brown knapweed (CENJA, Centaurea jacea); assay: as above
# Text: as §1, §2
# [9] = system: goldenrod (SOOSS, Solidago sp.); assay: as above; conditions: 67 DAA
# Text: as §1, §2
# [10] = system: hairy aster (ASTPI, Symphyotrichum pilosum); assay: as above
# Text: as §1, §2
# [11] = system: white clover (TRFRE, Trifolium repens); assay: Field trial United States, safening effect (visual injury) on white clover
# Text: Field trials were established in multiple states in the United States to evaluate the safening effect of herbicide treatments to white clover (TRFRE, Trifolium repens) in existing pasture lands. Trials were designed as randomized complete blocks with four replicates. All trials were established with a minimum plot size of 3 meters (m) by 8 m (width×length).
# All herbicide treatments were applied post-emergence with applications made to the white clover. Herbicides were applied with backpack sprayers using carbon dioxide (CO2) as a propellant. The sprayers utilized flat fan spray nozzles calibrated to deliver a uniform spray pattern that provided thorough coverage of the foliage using a 187 L/ha spray volume. All treatments were applied with Activator 90 non-ionic surfactant at 0.25% v/v.
# The white clover was evaluated on the number of days after application (DAA) given in each table below. Injury to the white clover was assessed visually at several intervals after application as percent overall injury, compared to an untreated control plot. The overall injury assessments were based on visual ratings of growth inhibition, leaf deformity, epinasty, and chlorosis.
structure (smiles),measurement,setting,value
"O=C(O)COc1ccc(Cl)cc1Cl [2,4-D Choline, 2,4-D choline]",Visual Weed Control RANAC Obs,"[1]; 10 DAA, 750 g ae/ha",8%
same,Visual Weed Control RANAC Obs,"[1]; 40 DAA, 750 g ae/ha",28%
same,Visual Weed Control ANTCO Obs,[2]; 840 g ae/ha,30%
same,Visual Weed Control LEPVI Obs,[3]; 840 g ae/ha,74%
same,Visual Weed Control CASOB Obs,"[4]; 30 DAA, 840 g ae/ha",10%
same,Visual Weed Control CASOB Obs,"[4]; 45 DAA, 840 g ae/ha",10%
same,Visual Weed Control HENAM Obs,"[5]; 30 DAA, 840 g ae/ha",74%
same,Visual Weed Control HENAM Obs,"[5]; 80 DAA, 840 g ae/ha",90%
same,Visual Weed Control MEUIN Obs,[6]; 840 g ae/ha,20%
same,Visual Weed Control IVAAN Obs,"[7]; 41 DAA, 840 g ae/ha",38%
same,Visual Weed Control IVAAN Obs,"[7]; 56 DAA, 840 g ae/ha",38%
same,Visual Weed Control IVAAN Obs,"[7]; 75 DAA, 840 g ae/ha",30%
same,Visual Weed Control IVAAN Obs,"[7]; 83 DAA, 840 g ae/ha",35%
same,Visual Weed Control CENJA Obs,"[8]; 67 DAA, 840 g ae/ha",0%
same,Visual Weed Control CENJA Obs,"[8]; 88 DAA, 840 g ae/ha",0%
same,Visual Weed Control CENJA Obs,"[8]; 117 DAA, 840 g ae/ha",0%
same,Visual Weed Control SOOS Obs,[9]; 840 g ae/ha,15%
same,Visual Weed Control ASTPI Obs,"[10]; 88 DAA, 840 g ae/ha",10%
same,Visual Weed Control ASTPI Obs,"[10]; 117 DAA, 840 g ae/ha",5%
same,Visual Injury TRFRE Obs,"[11]; 0 DAA, 754 g ae/ha",30%
same,Visual Injury TRFRE Obs,"[11]; 0 DAA, 840 g ae/ha",6.5%
same,Visual Injury TRFRE Obs,"[11]; 7 DAA, 754 g ae/ha",4.8%
same,Visual Injury TRFRE Obs,"[11]; 7 DAA, 840 g ae/ha",10%
same,Visual Injury TRFRE Obs,"[11]; 14 DAA, 754 g ae/ha",86.2%
same,Visual Injury TRFRE Obs,"[11]; 14 DAA, 840 g ae/ha",15%
same,Visual Injury TRFRE Obs,"[11]; 21 DAA, 840 g ae/ha",11.2%
same,Visual Injury TRFRE Obs,"[11]; 28 DAA, 840 g ae/ha",10%
"COc1c(Cl)ccc(-c2nc(C(=O)OCc3ccccc3)c(Cl)c(N)c2F)c1F [Florpyrauxifen Benzyl, florpyrauxifen benzyl]",Visual Weed Control RANAC Obs,"[1]; 10 DAA, 9.44 g ae/ha",0%
same,Visual Weed Control RANAC Obs,"[1]; 40 DAA, 9.44 g ae/ha",0%
same,Visual Weed Control ANTCO Obs,[2]; 12.5 g ae/ha,10%
same,Visual Weed Control LEPVI Obs,[3]; 9.5 g ae/ha,62%
same,Visual Weed Control LEPVI Obs,[3]; 12.5 g ae/ha,70%
same,Visual Weed Control LEPVI Obs,[3]; 19 g ae/ha,65%
same,Visual Weed Control CASOB Obs,"[4]; 30 DAA, 12.5 g ae/ha",10%
same,Visual Weed Control CASOB Obs,"[4]; 30 DAA, 19 g ae/ha",10%
same,Visual Weed Control CASOB Obs,"[4]; 45 DAA, 12.5 g ae/ha",10%
same,Visual Weed Control CASOB Obs,"[4]; 45 DAA, 19 g ae/ha",10%
same,Visual Weed Control HENAM Obs,"[5]; 30 DAA, 9.5 g ae/ha",60%
same,Visual Weed Control HENAM Obs,"[5]; 30 DAA, 12.5 g ae/ha",60%
same,Visual Weed Control HENAM Obs,"[5]; 80 DAA, 12.5 g ae/ha",40%
same,Visual Weed Control MEUIN Obs,[6]; 19 g ae/ha,10%
same,Visual Weed Control IVAAN Obs,"[7]; 41 DAA, 12.5 g ae/ha",38%
same,Visual Weed Control IVAAN Obs,"[7]; 41 DAA, 19 g ae/ha",50%
same,Visual Weed Control IVAAN Obs,"[7]; 56 DAA, 12.5 g ae/ha",42%
same,Visual Weed Control IVAAN Obs,"[7]; 75 DAA, 9.5 g ae/ha",25%
same,Visual Weed Control IVAAN Obs,"[7]; 75 DAA, 12.5 g ae/ha",48%
same,Visual Weed Control IVAAN Obs,"[7]; 83 DAA, 9.5 g ae/ha",30%
same,Visual Weed Control IVAAN Obs,"[7]; 83 DAA, 12.5 g ae/ha",48%
same,Visual Weed Control CENJA Obs,"[8]; 67 DAA, 19 g ae/ha",62%
same,Visual Weed Control CENJA Obs,"[8]; 88 DAA, 19 g ae/ha",62%
same,Visual Weed Control CENJA Obs,"[8]; 117 DAA, 9.5 g ae/ha",21%
same,Visual Weed Control CENJA Obs,"[8]; 117 DAA, 19 g ae/ha",31%
same,Visual Weed Control SOOS Obs,[9]; 9.5 g ae/ha,75%
same,Visual Weed Control ASTPI Obs,"[10]; 88 DAA, 9.5 g ae/ha",75%
same,Visual Weed Control ASTPI Obs,"[10]; 117 DAA, 9.5 g ae/ha",20%
